# Read-outs that look alike come from different tables or passages of the source.
# What was measured:
# FKBP5 = FKBP5 transcription in peritoneal resident macrophages (PRM) and spleen cells after in vivo treatment; set-up: species or system hVISTA mice; conditions: linker payloads as anti-VISTA conjugates; for FKBP5 induction in splenic cells (conclusions): day 1, 7, 14
# [1] = tested on: LPS stimulated human PBMCs; assay: LPS stimulated human PBMC, IL-1β and IL-6 ELISA; format: cell-based; conditions: for inhibition of IL-1β production: Experiment 8: free payload 1000-0.5 nM
# Procedure, shortened: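 Human PBMC (1-2 healthy donors), 150,000 cells/well, treated with test agents at 1,000 nM down to 1 nM or 0.2 nM, in duplicate. LPS at 1 ng/ml added immediately after free payload or 4 h after conjugates; IL-1β and IL-6 in supernatants measured by ELISA.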
# [2] = tested on: peritoneal resident macrophages (PRM); assay: In vivo treatment/ex vivo PRM activation, TNFα and IL-6 in supernatant; set-up: species or system hVISTA mice; conditions: for potency in PRM cytokine model when dosed 7 days early (conclusions) / controlling cytokine response in PRM when dosed 14 days early (conclusions): linker/payloads as anti-VISTA conjugates; for preventing ex vivo induction of TNFα and IL-6 in PRM: Experiment 9: linker payloads as conjugates, 7 days post 0.2 mg/Kg of GC payload, supernatant 24h
# Method: Based thereon we developed a model to allow us to evaluate long-term anti-inflammatory impact of ADC on specific target populations, such as PRMs. […] In the absence of GC treatment, after 2h PRMs become highly activated as shown by increases in cytokine production. […] The objective of these studies was to evaluate the efficacy and pharmacodynamic range of INX human VISTA antibodies conjugated to a glucocorticoid payload as compared to free Dex.
# After euthanasia, mice were injected in the peritoneal cavity with 7 ml of PBS/0.5% BSA/2 mM EDTA. After a brief massage of the peritoneum, a small incision was performed and the peritoneal lavage collected. PRM were isolated using negative selection (Miltenyi kit, ref 130-110-434). Spleen were dissected and dissociated mechanically; monocytes were isolated using […] (Stem Cell, EasySep™ Mouse CD11b Positive Selection Kit II).
# PRMs were resuspended in RPMI 1640 with 10% FBS, 10 mM Hepes, Penicillin/Streptomycin and glutamine and 100,000 cells were plated per well in a 96-well tissue culture plate. Supernatants were collected at 2 and 24h post plating and stored at −80° C. […]
# • BioLegend (cat #430904) ELISA MAX Deluxe Set Mouse TNF-α • BioLegend (cat #431304) ELISA MAX Deluxe Set Mouse IL-6
# ELISAs were conducted following the manufacturer's included protocol.
# human PBMC = assay: Cytokine production (IL-1β, IL-6) at 24 hr by human PBMC incubated with 1 ng/mL LPS; format: cell-based; conditions: free steroid payloads, serial dilutions, 1 ng/mL LPS, 24 hr
# Procedure, shortened: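 Human PBMC were stimulated with 1 ng/mL LPS together with serial dilutions of steroid payloads or glucocorticoid conjugates, spanning up to 8,000 nM down to 0.032 nM depending on the series. IL-1β and IL-6 were measured at 24 hr from technical duplicates, with 1-2 donors. Values above the ULOQ were extrapolated.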
compound,measurement,setting,value
"C[C@]12C=CC(=O)C=C1CC[C@@H]1[C@@H]2[C@@H](O)C[C@@]2(C)[C@H]1C[C@H]1O[C@@H](c3ccc(OC4CC5(CC(NC(=O)[C@H](CCC(=O)O)NC(=O)CNC(=O)CBr)C5)C4)cc3)O[C@]12C(=O)CO (stereo partly drawn) [INX A4, (S)-4-(2-(2-bromoacetamido)acetamido)-5-((6-(4-((6aR,6bS,7S,8aS,8bS,10R,11aR,12aS,12bS)-7-hydroxy-8b-(2-hydroxyacetyl)-6a,8a-dimethyl-4-oxo-2,4,6a,6b,7,8,8a,8b,11a,12,12a,12b-dodecahydro-1H-naphtho[2′,1′:4,5]indeno[1,2-d][1,3]dioxol-10-yl)phenoxy)spiro[3.3]heptan-2-yl)amino)-5-oxopentanoic acid]",FKBP5 induction when dosed 14 days early (conclusions),FKBP5,still display significant potency when dosed 14 days early in regard to FKBP5 induction
same,FKBP5 induction in splenic cells (conclusions),FKBP5,"only demonstrate significant induction at day 1, and 7"
same,potency of conjugated linker payloads over INX J (conclusions),[1],enhanced potency
"C[C@]12C=CC(=O)C=C1CC[C@@H]1[C@@H]2[C@@H](O)C[C@@]2(C)[C@H]1C[C@H]1O[C@@H](c3ccc(Cc4cccc(NC(=O)[C@H](CCC(=O)O)NC(=O)CNC(=O)CBr)c4)cc3)O[C@]12C(=O)CO [INX J, (S)-4-(2-(2-bromoacetamido)acetamido)-5-((3-(4-((6aR,6bS,7S,8aS,8bS,10R,11aR,12aS,12bS)-7-hydroxy-8b-(2-hydroxyacetyl)-6a,8a-dimethyl-4-oxo-2,4,6a,6b,7,8,8a,8b,11a,12,12a,12b-dodecahydro-1H-naphtho[2′,1′:4,5]indeno[1,2-d][1,3]dioxol-10-yl)benzyl)phenyl)amino)-5-oxopentanoic acid, reference compound]",potency in PRM cytokine model when dosed 7 days early (conclusions),[2],show similar potency when dosed 7 days early
C[C@]12C=CC(=O)C=C1CC[C@@H]1[C@@H]2[C@@H](O)C[C@@]2(C)[C@H]1C[C@H]1O[C@@H](c3ccc(Cc4cccc(NC(=O)[C@H](CCC(=O)O)NC(=O)CNC(=O)CBr)c4)cc3)O[C@]12C(=O)COP(=O)(O)O [INX L],FKBP5 induction in splenic cells (conclusions),FKBP5,"only demonstrate significant induction at day 1, and 7"
same,controlling cytokine response in PRM when dosed 14 days early (conclusions),[2],significant potency in controlling cytokine response in PRM when dosed 14 days early
"C[C@]12C=CC(=O)C=C1CC[C@@H]1[C@@H]2[C@@H](O)C[C@@]2(C)[C@H]1C[C@H]1O[C@@H](C34CC(Cc5cccc(NC(=O)[C@H](CCC(=O)O)NC(=O)CNC(=O)CBr)c5)(C3)C4)O[C@]12C(=O)CO [INX O, (S)-4-(2-(2-bromoacetamido)acetamido)-5-((3-((3-((6aR,6bS,7S,8aS,8bS,10R,11aR,12aS,12bS)-7-hydroxy-8b-(2-hydroxyacetyl)-6a,8a-dimethyl-4-oxo-2,4,6a,6b,7,8,8a,8b,11a,12,12a,12b-dodecahydro-1H-naphtho[2′,1′:4,5]indeno[1,2-d][1,3]dioxol-10-yl)bicyclo[1.1.1]pentan-1-yl)methyl)phenyl)amino)-5-oxopentanoic acid]",preventing ex vivo induction of TNFα and IL-6 in PRM,[2],little and non-significant impact on the PRM cytokine response
same,potency in PRM cytokine model when dosed 7 days early (conclusions),[2],very limited and non-significant potency when conjugated to INX201
"C[C@H](NC(=O)CBr)C(=O)N[C@@H](C)C(=O)NC12CC(Cc3ccc([C@@H]4O[C@@H]5C[C@H]6[C@@H]7CCC8=CC(=O)C=C[C@]8(C)[C@H]7[C@@H](O)C[C@]6(C)[C@]5(C(=O)CO)O4)cc3)(C1)C2 [INX R, (S)-2-(2-bromoacetamido)-N—((S)-1-((3-(4-((6aR,6bS,7S,8aS,8bS,10R,11aR, 12aS,12bS)-7-hydroxy-8b-(2-hydroxyacetyl)-6a,8a-dimethyl-4-oxo-2,4,6a,6b,7,8,8a,8b,11a,12,12a,12b-dodecahydro-1H-naphtho[2′,1′:4,5]indeno[1,2-d][1,3]dioxol-10-yl)benzyl)bicyclo[1.1.1]pentan-1-yl)amino)-1-oxopropan-2-yl) propanamide]",potency in PRM cytokine model when dosed 7 days early (conclusions),[2],show similar potency when dosed 7 days early
"C[C@]12C=CC(=O)C=C1[C@@H](F)C[C@H]1[C@@H]3C[C@H]4O[C@@H](c5ccc(CC67CC(NC(=O)[C@H](CCC(=O)O)NC(=O)CNC(=O)CBr)(C6)C7)cc5)O[C@@]4(C(=O)CO)[C@@]3(C)C[C@H](O)[C@@]12F [INX S, (S)-4-(2-(2-bromoacetamido)acetamido)-5-((3-(4-((2S,6aS,6bR,7S,8aS,8bS, 10R,11aR,12aS,12bS)-2,6b-difluoro-7-hydroxy-8b-(2-hydroxyacetyl)-6a,8a-dimethyl-4-oxo-2,4,6a,6b,7,8,8a,8b,11a,12,12a,12b-dodecahydro-1H-naphtho[2′,1′:4,5]indeno[1,2-d][1,3]dioxol-10-yl)benzyl)bicyclo[1.1.1]pentan-1-yl)amino)-5-oxopentanoic acid]",FKBP5 induction when dosed 14 days early (conclusions),FKBP5,still display significant potency when dosed 14 days early in regard to FKBP5 induction
same,FKBP5 induction in splenic cells (conclusions),FKBP5,"Significant FKBP5 induction is seen at day 1, 7, and 14 in splenic cells"
same,preventing ex vivo induction of TNFα and IL-6 in PRM,[2],remarkable long-term potency in controlling cytokine responses
same,controlling cytokine response in PRM when dosed 14 days early (conclusions),[2],significant potency in controlling cytokine response in PRM when dosed 14 days early
same,potency in PRM cytokine model when dosed 7 days early (conclusions),[2],remarkably more potent than payloads INX P and INX R when dosed 7 days early
"C[C@]12C=CC(=O)C=C1CC[C@@H]1[C@@H]2[C@@H](O)C[C@@]2(C)[C@H]1C[C@H]1O[C@@H](c3ccc(CC4CC(N)C45CCC5)cc3)O[C@]12C(=O)CO (stereo partly drawn) [INX-SM-45, (6aR,6bS,7S,8aS,8bS,10R,11aR,12aS,12bS)-10-(4-((3-aminospiro[3.3]heptan-1-yl)methyl)phenyl)-7-hydroxy-8b-(2-hydroxyacetyl)-6a,8a-dimethyl-1,2,6a,6b,7,8,8a,8b,11a,12,12a,12b-dodecahydro-4H-naphtho[2′,1′:4,5]indeno[1,2-d][1,3]dioxol-4-one 2,2,2-trifluoroacetate]",inhibition of IL-1β production,human PBMC,more modest inhibition
same,inhibition of IL-1β production,[1],more modest inhibition of cytokine production
"C[C@]12C=CC(=O)C=C1CC[C@@H]1[C@@H]2[C@@H](O)C[C@@]2(C)[C@H]1C[C@H]1O[C@@H](c3ccc(CC4CC45CCC(N)CC5)cc3)O[C@]12C(=O)CO (stereo partly drawn) [INX-SM-46, (6aR,6bS,7S,8aS,8bS,10R,11aR,12aS,12bS)-10-(4-((6-aminospiro[2.5]octan-1-yl)methyl)phenyl)-7-hydroxy-8b-(2-hydroxyacetyl)-6a,8a-dimethyl-1,2,6a,6b,7,8,8a,8b,11a,12,12a,12b-dodecahydro-4H-naphtho[2′,1′:4,5]indeno[1,2-d][1,3]dioxol-4-one 2,2,2-trifluoroacetate]",inhibition of IL-1β production,human PBMC,more modest inhibition
same,inhibition of IL-1β production,[1],more modest inhibition of cytokine production
"C[C@]12C=CC(=O)C=C1CC[C@@H]1[C@@H]2[C@@H](O)C[C@@]2(C)[C@H]1C[C@H]1O[C@@H](c3ccc(CC4CC5(CNC5)C4)cc3)O[C@]12C(=O)CO [INX-SM-47, (6aR,6bS,7S,8aS,8bS,10R,11aR,12aS,12bS)-10-(4-((2-azaspiro[3.3]heptan-6-yl)methyl)phenyl)-7-hydroxy-8b-(2-hydroxyacetyl)-6a,8a-dimethyl-1,2,6a,6b,7,8,8a,8b,11a,12,12a,12b-dodecahydro-4H-naphtho[2′,1′:4,5]indeno[1,2-d][1,3]dioxol-4-one 2,2,2-trifluoroacetate]",inhibition of IL-1β production,human PBMC,weakly inhibit
same,inhibition of IL-6 production,human PBMC,weakly inhibit
same,inhibition of IL-1β and IL-6,[1],weakly inhibit IL-1β and IL-6
"CNC1CC(Cc2ccc([C@@H]3O[C@@H]4C[C@H]5[C@@H]6CCC7=CC(=O)C=C[C@]7(C)[C@H]6[C@@H](O)C[C@]5(C)[C@]4(C(=O)CO)O3)cc2)C1 (stereo partly drawn) [INX-SM-49, (6aR,6bS,7S,8aS,8bS,10R,11aR,12aS,12bS)-7-hydroxy-8b-(2-hydroxyacetyl)-6a,8a-dimethyl-10-(4-((3-(methylamino)cyclobutyl)methyl)phenyl)-1,2,6a,6b,7,8,8a,8b,11a,12,12a,12b-dodecahydro-4H-naphtho[2′,1′:4,5]indeno[1,2-d][1,3]dioxol-4-one]",inhibition of IL-1β production,human PBMC,weakly inhibit
same,inhibition of IL-6 production,human PBMC,weakly inhibit
same,inhibition of IL-1β and IL-6,[1]; Experiment 12: free payloads 1000-0.15 nM,weakly inhibit IL-1β and IL-6
